In PubChem BioAssay (NCI):
“And” between values parts separate entries of the source, which are not always exact repeats. Equal entries are not always repeated.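 Assay format: 96-well plates, 48-hour exposure. GI50: concentration for 50% inhibition of growth. TGI: total growth inhibition.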

How the values were obtained:
Assay in all cases: NCI tumour cell line growth inhibition, 48 h
A549 NSCLC = system: A549 NSCLC
DU-145 prostate = system: DU-145 prostate
EKVX NSCLC = system: EKVX NSCLC
HCC-2998 colon = system: HCC-2998 colon
HL-60(TB) leukemia = system: HL-60(TB) leukemia
MDA-MB-231 breast = system: MDA-MB-231 breast
PC-3 prostate = system: PC-3 prostate
SF-268 CNS = system: SF-268 CNS
SK-MEL-28 melanoma = system: SK-MEL-28 melanoma
UACC-257 melanoma = system: UACC-257 melanoma

Row | Compound | TGI (A549 NSCLC) | TGI (DU-145 prostate) [µM] | TGI (EKVX NSCLC) | TGI (HCC-2998 colon) | TGI (HL-60(TB) leukemia) | TGI (MDA-MB-231 breast) [µM] | TGI (PC-3 prostate) | TGI (SF-268 CNS) | TGI (SK-MEL-28 melanoma) | TGI (UACC-257 melanoma) | GI50 (DU-145 prostate) [µM] | GI50 (EKVX NSCLC) [µM] | GI50 (HCC-2998 colon) [µM] | GI50 (HL-60(TB) leukemia) | GI50 (MDA-MB-231 breast) [µM] | GI50 (SF-268 CNS) [µM] | GI50 (A549 NSCLC) [µM] | GI50 (PC-3 prostate) [µM] | GI50 (SK-MEL-28 melanoma) [µM] | GI50 (UACC-257 melanoma) [µM]
1 | O=c1cc(-c2ccc(O)cc2)oc2cc(O[C@@H]3O[C@H](CO)[C@@H](O)[C@H](O)[C@H]3O)cc(O)c12 | > 100 µM | > 100 | > 100 µM | > 100 µM | > 100 µM | > 100 | > 100 µM | > 100 µM | > 100 µM | > 100 µM |  |  |  |  |  |  |  |  |  | 
2 | CC1=C2C(=CC(C)(C)[C@@H]2O)C(=O)[C@](C)(O)C12CC2 | 0.191 µM and 1.12 µM | 0.0262 | 0.17 µM and 0.221 µM | 0.079 µM and 0.0423 µM | 0.0495 µM and 0.0832 µM |  | 0.164 µM and 0.0194 µM | 0.0727 µM and 0.0659 µM | 0.0756 µM and 0.0891 µM | 0.328 µM and 0.259 µM | 0.00545 | 0.0409 | 0.0237 | 0.00901 µM and 0.0194 µM | 0.0513 | 0.00973 |  |  |  | 
3 | Cc1cc(C)c2c(n1)sc1c(N)ncnc12 | > 25 µM | > 25 |  | > 25 µM | > 25 µM | > 25 | > 25 µM | > 25 µM | > 25 µM | > 25 µM | > 25 |  | > 25 | > 25 µM | > 24 | > 25 | > 25 | > 25 | > 25 | > 25
4 | Cn1cccc1-c1cc(-c2ccccc2)[nH]c(=O)c1C#N | > 100 µM | > 100 | > 100 µM | > 100 µM |  | > 100 | > 100 µM | > 100 µM | > 100 µM | > 100 µM | > 100 | 37.3 | > 100 |  | > 100 | > 100 | > 100 | > 100 | > 100 | > 100
5 | O=C(Nc1ccc(-n2ccc3c(NC(=O)c4ccccc4)ncnc32)cc1)c1cccc(C(F)(F)F)c1 | 21.1 µM | 16.1 | 22.7 µM | 27 µM | 36.7 µM | 23 | 34 µM | 24.5 µM | 24.9 µM | 32.1 µM | 1.77 | 6.38 | 4.96 | 3.02 µM | 2.76 | 1.16 | 0.966 | 3.3 | 10.6 | 10.2
6 | COC(=O)C12CC(NC(=O)c3csc([C@@H](C[C@H](C(C)C)N(C)C(=O)[C@@H](NC(=O)[C@H]4CCCCN4C)C4CC4)OC(C)=O)n3)(C1)C2 | > 16.7 µM | > 16.7 | > 16.7 µM | > 16.7 µM | 0.00876 µM | > 16.7 | > 16.7 µM | > 16.7 µM | > 16.7 µM | > 16.7 µM | 0.0154 | 0.0696 | 0.0851 | 0.00243 µM | 0.0435 | 0.023 | 0.101 | 0.0366 | 0.148 | > 16.7
7 | C1=C/COCc2cc(ccc2OCCN2CCCC2)Nc2nccc(n2)-c2ccc(o2)COC/1 | 12 µM | 13.8 | 5.89 µM | 7.93 µM | 6.27 µM | 7.9 | 21.4 µM | 4.45 µM | 5.26 µM | 3.43 µM | 1.57 | 1.88 | 2.18 | 0.729 µM | 1.97 | 1.69 | 2.23 | 1.17 | 1.65 | 1.52
